# Results: patent US7081461B1, “Quinazoline compounds and pharmaceutical compositions containing them” (AstraZeneca AB, priority 1999, dated 2006)
# Key:
# MCF7 cells = test: In vitro cell cycle analysis assay (FACS, propidium iodide); format: cell-based, human; details: MCF7, 24.8 μM, 24 hours
# Experimental: (c) In Vitro Cell Cycle Analysis Assay
# This assay determines the ability of a test compound to arrest cells in specific phases of the cell cycle. Many different mammalian cell lines could be used in this assay and MCF7 cells are included here as an example. MCF-7 cells were seeded at 3×10^5 cells per T25 flask (Costar) in 5 ml DMEM (no phenol red 10% FCS, 1% L-glutamine 1% penicillin/streptomycin). Flasks were then incubated overnight in a humidified 37° C. incubator with 5% CO2. The following day 1 ml of DMEM (no phenol red 10% FCS, 1% L-glutamine 1% penicillin/streptomycin) carrying the appropriate concentration of test compound solubilised in DMSO was added to the flask. A no compound control treatments was also included (0.5% DMSO). The cells were then incubated for a defined time (usually 24 hours) with compound. After this time the media was aspirated from the cells and they were washed with 5 ml of prewarmed (37° C.) sterile PBSA, then detached from the flask by brief incubation with trypsin and followed by resuspension in 10 ml of 1% Bovine Serum Albumin (BSA, Sigma-Aldrich Co.) in sterile PBSA. The samples were then centrifuged at 2200 rpm for 10 min. The supernatant was aspirated and the cell pellet was resuspended in 200%1 of 0.1% (w/v) Tris sodium citrate, 0.0564% (w/v) NaCl, 0.03% (v/v) Nonidet NP40, [pH 7.6]. Propridium Iodide (Sigma Aldrich Co.) was added to 40 μg/ml and RNAase A (Sigma Aldrich Co.) to 100 μg/ml. The cells were then incubated at 37° C. for 30 minutes. The samples were centrifuged at 2200 rpm for 10 min, the supernatant removed and the remaining pellet (nuclei) resuspended in 200%1 of sterile PBSA. […] The samples were then transferred to LPS tubes and DNA content per cell analysed by Fluorescence activated cell sorting (FACS) using a FACScan flow cytometer (Becton Dickinson). Typically 25000 events were counted and recorded using […]. Cell cycle distribution of the population was calculated using Modfit software (Verity Software) and expressed as percentage of cells in G0/G1, S and G2/M phases of the cell cycle.
# aurora2 kinase = molecular target: T1, aurora2 kinase (Homo sapiens, UniProt O14965); test: In vitro aurora2 kinase inhibition test; format: biochemical
# T1 construct: 6 His with spacer region and rTEV protease cleavage site (pFastBac HTc) (N); made in house; host or cells: Spodoptera frugiperda Sf21 insect cells (baculovirus, pFastBac HTc)
# T1 sequence (O14965 1-403): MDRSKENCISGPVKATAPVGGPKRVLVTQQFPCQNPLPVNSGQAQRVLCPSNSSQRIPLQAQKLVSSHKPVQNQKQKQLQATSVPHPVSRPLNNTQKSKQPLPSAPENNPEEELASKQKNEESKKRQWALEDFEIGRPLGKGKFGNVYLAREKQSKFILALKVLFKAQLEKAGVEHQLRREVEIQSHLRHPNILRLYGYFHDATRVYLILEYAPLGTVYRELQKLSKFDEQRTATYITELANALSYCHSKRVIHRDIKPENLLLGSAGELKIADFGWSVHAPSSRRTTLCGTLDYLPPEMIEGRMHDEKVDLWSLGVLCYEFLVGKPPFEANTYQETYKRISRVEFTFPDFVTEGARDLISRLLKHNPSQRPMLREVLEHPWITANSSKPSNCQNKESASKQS
# MCF-7 cells = test: In vitro cell proliferation assay, Assay 1 (CyQUANT cell density); format: cell-based; details: Homo sapiens, MCF7, 72 h, MCF-7, 3 days with compound, read-out: concentration giving 50% inhibition of cell proliferation
# Excerpt: (b) In Vitro Cell Proliferation Assay
# These and other assays can be used to determine the ability of a test compound to inhibit the growth of adherent mammalian cell lines, for example the human tumour cell line MCF7.
# Assay 1: MCF-7 (ATCC HTB-22) or other adherent cells were typically seeded at 1×10^3 cells per well (excluding the peripheral wells) in DMEM (Sigma Aldrich) without phenol red, plus 10% foetal calf serum, 1% L-glutamine and 1% penicillin/streptomycin in 96 well tissue culture treated clear plates (Costar). The following day (day 1), the media was removed from a no treatment control plate and the plate stored at −80° C. […] The fluorescence of the wells was then measured using a fluorescence microplate reader (gain 70, 2 reads per well, 1 cycle with excitation 485 nm and emission 530 nm using a CytoFluor plate reader (PerSeptive Biosystems Inc.)). […]
structure (smiles),measurement,setting,value
COc1ccnc(COc2ccc(Nc3ncnc4cc(OC)c(OC)cc34)cc2C)c1 [Compound 43],% Cells in G1,MCF7 cells,37.29%
same,% Cells in G2/M,MCF7 cells,28.78%
same,% Cells in S,MCF7 cells,33.93%
same,IC50,aurora2 kinase,465 nM
same,IC50,MCF-7 cells,12.4 µM
